Columns and labels:
Assay type in all cases: functional, cell-based
HepG2 = test: Antiproliferative activity against human HepG2 cells assessed as inhibition of cell growth
U-937 = test: Antiproliferative activity against human U-937 cells assessed as inhibition of cell growth
A549 = test: Antiproliferative activity against human A549 cells assessed as inhibition of cell growth
Y79 = test: Antiproliferative activity against human Y79 cells assessed as inhibition of cell growth

SMILES | IC50 (HepG2) [µM] | IC50 (U-937) [µM] | IC50 (A549) [µM] | IC50 (Y79) [µM]
COc1cc(Nc2cc(-c3ccc4c(c3)OCCO4)nc(N)n2)cc(OC)c1OC | > 10 | > 10 | > 10 | > 10
COc1cc(Nc2ccnc(-c3ccc4c(c3)OCO4)n2)cc(OC)c1OC | > 10 | > 10 | > 10 | > 10
COc1cc(Nc2cc(-c3ccc4cc[nH]c4c3)ncn2)cc(OC)c1OC | > 10 | > 10 | > 10 | > 10
COc1cc(Nc2ccnc(-c3ccc4[nH]c5ccccc5c4c3)n2)cc(OC)c1OC | 3.77 | 1.31 | 3.88 | > 10
COc1cc(Nc2nccc(-c3csc4ccccc34)n2)cc(OC)c1OC | 3.98 | 1.78 | > 10 | > 10
COc1cc(Nc2cc(-c3cc4ccccc4s3)nc(N)n2)cc(OC)c1OC | > 10 | > 10 | > 10 | > 10
COc1cc(Nc2cc(-c3coc4ccccc34)ncn2)cc(OC)c1OC | > 10 | > 10 | > 10 | > 10
COc1cc(Nc2cc(-c3ccc4occc4c3)ncn2)cc(OC)c1OC | > 10 | > 10 | > 10 | > 10
COc1cc(Nc2nccc(-c3ccc4c(c3)OCO4)n2)cc(OC)c1OC | 1.77 | 0.37 | 3.17 | > 10
COc1cc(Nc2cc(-c3ccc4cc[nH]c4c3)nc(N)n2)cc(OC)c1OC | 2.51 | 2.12 | 1.92 | > 10
COc1cc(Nc2nccc(-c3ccc4occc4c3)n2)cc(OC)c1OC | 0.79 | 0.04 | 1.76 | > 10
COc1cc(Nc2ccnc(-c3csc4ccccc34)n2)cc(OC)c1OC | 5.01 | 1.54 | 3.06 | > 10
COc1cc(Nc2cc(-c3cc4ccccc4s3)ncn2)cc(OC)c1OC | > 10 | > 10 | > 10 | > 10
COc1cc(Nc2cc(-c3ccc4c(c3)OCCO4)ncn2)cc(OC)c1OC | > 10 | > 10 | > 10 | > 10
COc1cc(Nc2cc(-c3coc4ccccc34)nc(N)n2)cc(OC)c1OC | 1.97 | 1.4 | 1.68 | > 10
COc1cc(Nc2ccnc(-c3coc4ccccc34)n2)cc(OC)c1OC | 2.41 | 0.9 | 1.4 | > 10
COc1cc(Nc2ccnc(-c3ccc4occc4c3)n2)cc(OC)c1OC | > 10 | > 10 | > 10 | > 10
COc1cc(Nc2nccc(-c3ccc4sc5ccccc5c4c3)n2)cc(OC)c1OC | > 10 | 7.17 | > 10 | > 10
COc1cc(Nc2nccc(-c3cc4ccccc4s3)n2)cc(OC)c1OC | 0.24 | 0.12 | 0.46 | > 10
COc1cc(Nc2cc(-c3ccc4ncccc4c3)ncn2)cc(OC)c1OC | > 10 | > 10 | > 10 | > 10
COc1cc(Nc2cc(-c3cc4ccccc4o3)ncn2)cc(OC)c1OC | > 10 | > 10 | > 10 | > 10

SMILES | IC50 (HepG2) [µM] | IC50 (U-937) [µM] | IC50 (A549) [µM] | IC50 (Y79) [µM]
COc1cc(Nc2cc(-c3cc4ccccc4o3)nc(N)n2)cc(OC)c1OC | > 10 | > 10 | > 10 | > 10
COc1cc(Nc2nccc(-c3ccc4ncccc4c3)n2)cc(OC)c1OC | 0.84 | 0.97 | 1.76 | > 10
COc1cc(Nc2nccc(-c3coc4ccccc34)n2)cc(OC)c1OC | 4.19 | 3.52 | 3.83 | > 10
COc1cc(Nc2ccnc(-c3ccc4c(c3)OCCO4)n2)cc(OC)c1OC | > 10 | > 10 | > 10 | > 10
COc1cc(Nc2cc(-c3cccc4c3OCO4)nc(N)n2)cc(OC)c1OC | > 10 | > 10 | > 10 | > 10
COc1cc(Nc2ccnc(-c3ccc4ncccc4c3)n2)cc(OC)c1OC | > 10 | > 10 | > 10 | > 10
COc1cc(Nc2cc(-c3ccc4c(c3)CCO4)nc(N)n2)cc(OC)c1OC | > 10 | > 10 | > 10 | > 10
COc1cc(Nc2nccc(-c3ccc4cc[nH]c4c3)n2)cc(OC)c1OC | 0.37 | 0.12 | 0.85 | > 10
COc1cc(Nc2nccc(-c3ccc4c(c3)CCO4)n2)cc(OC)c1OC | 0.47 | 0.26 | 0.73 | 0.6
COc1cc(Nc2cc(-c3ccc4c(c3)CCO4)ncn2)cc(OC)c1OC | > 10 | > 10 | > 10 | > 10
COc1cc(Nc2cc(-c3ccc4c(c3)OCO4)ncn2)cc(OC)c1OC | > 10 | > 10 | > 10 | > 10
COc1cc(Nc2ccnc(-c3ccc4c(c3)CCO4)n2)cc(OC)c1OC | > 10 | > 10 | > 10 | > 10
COc1cc(Nc2cc(-c3csc4ccccc34)ncn2)cc(OC)c1OC | > 10 | > 10 | > 10 | > 10
COc1cc(Nc2cc(-c3ccc4[nH]c5ccccc5c4c3)ncn2)cc(OC)c1OC | > 10 | 3.95 | 3.03 | > 10
COc1cc(Nc2nccc(-c3ccc4[nH]c5ccccc5c4c3)n2)cc(OC)c1OC | 1.48 | 0.9 | 3.12 | > 10
COc1cc(Nc2cc(-c3ccc4occc4c3)nc(N)n2)cc(OC)c1OC | 4.38 | 2.41 | 4.42 | > 10
COc1cc(Nc2ccnc(-c3ccc4cc[nH]c4c3)n2)cc(OC)c1OC | > 10 | > 10 | > 10 | > 10
COc1cc(Nc2cc(-c3csc4ccccc34)nc(N)n2)cc(OC)c1OC | > 10 | > 10 | > 10 | > 10
COc1cc(Nc2ccnc(-c3cc4ccccc4s3)n2)cc(OC)c1OC | > 10 | > 10 | > 10 | > 10
COc1cc(Nc2ccnc(-c3cc4ccccc4o3)n2)cc(OC)c1OC | > 10 | > 10 | > 10 | > 10
COc1cc(Nc2nccc(-c3cc4ccccc4o3)n2)cc(OC)c1OC | 1.22 | 0.34 | 2.29 | > 10

Source: ChEMBL document CHEMBL5252592, “Design, synthesis, and biological activity evaluation of novel tubulin polymerization inhibitors based on pyrimidine ring skeletons” (Bioorg Med Chem Lett, 2023)
